Experimental findings from patent US6884601B1, “Method to detect fertilization potential of sperm” (priority 1999, dated 2005) are described below.

Molecules are shown by their SMILES.

The target in the experiment is T1, phospholipid hydroperoxide glutathione peroxidase (PHGPx) (Rattus norvegicus, UniProt P36970).
T1 construct: from tissue; host or cells: Wistar rat: cells from seminiferous tubules of the testis, epididymal spermatozoa, sperm mitochondrial capsule
T1 sequence (P36970 3-170 isoform P36970-2 limits assumed): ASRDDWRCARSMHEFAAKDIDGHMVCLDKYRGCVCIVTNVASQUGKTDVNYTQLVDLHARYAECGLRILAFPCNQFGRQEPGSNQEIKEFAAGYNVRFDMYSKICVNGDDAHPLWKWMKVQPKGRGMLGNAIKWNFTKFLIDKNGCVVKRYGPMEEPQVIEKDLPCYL
The experiment can be described thus: PHGPx activity after solubilisation/reduction with thiols (phosphatidylcholine hydroperoxide substrate). The format is biochemical. To be noted: for PHGPx activity: 6M guanidine-HCl, pH 7.5, 4° C., 10 min. How it is done: In fact, the specific activities thus obtained from mitochondrial capsules exceed, by a factor of 20, the highest values ever measured, i.e. in spermatogenic cells. Nevertheless, this extreme PHGPx activity is still low compared to its content in PHGPx protein.
Spermatozoa of four month old Wistar rats (about 300 grams of body weight) were collected by squeezing cauda epididymis and vas deferens in phosphate buffer saline (PBS) and by centrifugating at 600×g for 10 minutes. Cell and sperm pellets were layered on a discontinous 45%, 70% and 95% Percoll gradient and centrifugated at 300×g for 20 min. Spermatogenic cells stacked on top of the gradient, while spermatozoa separated into the 70% Percoll layer. Cells from seminiferous epithelium were prepared as follows (26): testes were deprived of albuginea, seminiferous tubules were cut into small pieces in PBS containing 0.250 mg/ml collagenase, and incubated twice 25° C. for 15 min. Cells then were filtered through a stainless steel screen (140 μm pore), washed in PBS and centrifugated at 300×g for 10 min. Sperm mitochondrial capsule was prepared according to Calvin et al. (1): sperms were resuspended in 0.05 M Tris-HCl pH 8.0 at the concentration of 10^6 cells/ml and treated with trypsin (0.2 mg/ml) for 10 minutes. After stopping the protease action with trypsin inhibitor (0.5 mg/ml) and SDS (10 mg/ml) sperms were centrifugated at 1,500×g for 10 minutes. Pellets were resuspended in 0.05 M Tris-HCl, pH 8.5 containing 1% sodium dodecyl sulphate (SDS), and 0.2 mM DTT and kept under continuous stirring for 30 minutes. Following centrifugation at 4,500×g for 15 min, the resulting supernatant was layered on a 1.6 M sucrose cushion. After centrifugation for 20 min at 18,000×g in a swinging rotor, sperm capsules were collected as a band at the top of the sucrose cushion, washed in Tris-HCl, pH 8.0 and spun at 140,000×g.
When applicable, PHGPx was also identified by activity measurement according to (28) using the specific substrate phosphatidylcholine hydroperoxide.

Setting [1] is: 0.1 M thiol in the presence of guanidine, measured after elimination of denaturating and reducing agents.

Consider `N[C@@H](CCC(=O)N[C@@H](CS)C(=O)NCC(=O)O)C(=O)O` [glutathione], for which the “Reactivation of latent PHGPx of sperm mitochondrial capsule / mature spermatozoa” value (glutathione in the low millimolar range, conventional test conditions) is “neither reactivated”.
As for `O[C@H](CS)[C@H](O)CS` (racemic) [dithiothreitol], the “Reactivation of latent PHGPx of sperm mitochondrial capsule / mature spermatozoa” value under setting [1] is listed as “regenerate a significant PHGPx activity”.
In the case of `OCCS` [2-mercaptoethanol], under setting [1], the “Reactivation of latent PHGPx of sperm mitochondrial capsule / mature spermatozoa” value is given as “regenerate a significant PHGPx activity”. Moreover, the PHGPx activity by setting is: (Cells from seminiferous tubules, 5 mM 2-mercaptoethanol, mean and S.D. of five) 250 ± 10 mU/mg protein; (Cells from seminiferous tubules, 100 mM 2-mercaptoethanol, mean and S.D. of five) 260 ± 10 mU/mg protein; (Mitochondrial capsule, 5 mM 2-mercaptoethanol) “undetectable”; (Mitochondrial capsule, 100 mM 2-mercaptoethanol, mean and S.D. of five) 5,600 ± 290 mU/mg protein; (Spermatozoa from tail of epididymis, 5 mM 2-mercaptoethanol) “undetectable”; (Spermatozoa from tail of epididymis, 100 mM 2-mercaptoethanol, mean and S.D. of five) 3,140 ± 200 mU/mg protein.
